System: RBD
Format: binding, SARS-CoV-2

| Substance | biosensor activity with RBD-Lg, ACE2 deletions and mutants |
| --- | --- |
| Sm-ACE2-18–415 | reduced biosensor activity |
| Sm-ACE2-18-515 | significantly lower than that of Sm-ACE2-18-615/RBD-Lg |
| K353A | almost abolished biosensor activity |
| ACE2 K31 | significantly reduced biosensor activity |

— article PMC8227885 (Viruses, 2021)
